Assay results published in patent US20230365554A1, “SUBSTITUTED PYRROLO-PYRIDINONE DERIVATIVES AND THERAPEUTIC USES THEREOF” (The Broad Institute, Inc., priority 2020, published 2023).
pIC50: −log10 of the molar value.

What was measured:
[1] = target: human CSNK1D (Homo sapiens (Human), UniProt P48730); test: CSNK1D assay (ADP-Glo, 1 μM ATP); format: biochemical; details: median, Table 2, read-out: CSNK1D IC50 [mol/l] (median)
Method: CSNK1D-inhibitory activity of compounds of the present invention in presence of 1 μM adenosine-tri-phosphate (ATP) was quantified employing the CSNK1D assay as described in the following paragraphs. In essence, the enzyme activity is measured by quantification of the adenosine-di-phosphate (ADP), which is generated as a co-product of the enzyme reaction, via the “ADP-Glo™ Kinase Assay” kit from the company Promega. This detection system works as follows: In a first step the ATP not consumed in the kinase reaction is quantitatively converted to cAMP employing an adenylate cyclase (“ADP-Glo-reagent”), then the adenylate cyclase is stopped and the ADP generated in the kinase reaction converted to ATP which generates in a luciferase-based reaction a glow-luminescence signal (“Kinase Detection Reagent”).
(§1) Recombinant fusion protein of N-terminal Glutathion-S-Transferase (GST) and full-length human CSNK1D, expressed by baculovirus infected insect cells and purified via Glutathion affinity chromatography, was purchased from Life Technologies (product no. PV3665) and used as enzyme. As substrate for the kinase reaction the biotinylated peptide Btn-Ahx-SGSEGDSESGEEEG (C-terminus in amide form) was used which can be purchased e.g. from the company Biosyntan (Berlin-Buch, Germany).
For the assay 50 nl of a 100 fold concentrated solution of the test compound in DMSO was pipetted into a white 1536-well microtiter plate (Greiner Bio-One, Frickenhausen, Germany), 2 μL of a solution of CSNK1D in aqueous assay buffer [50 mM HEPES pH 7.5, 10% (v/v) glycerol, 10 mM MgCl2, 50 mM NaCl, 1 mM dithiothreitol, 0.01% (w/v) bovine serum albumin, 0.01% (v/v) Triton X-100] were added and the mixture was incubated for 15 min at 22° C. to allow pre-binding of the test compounds to the enzyme before the start of the kinase reaction. Then the kinase reaction was started by the addition of 3 μL of a solution of ATP (1.67 μM=>final conc. in the 5 μL assay volume is 1 μM) and peptide substrate (50 μM=>final conc. in the 5 μL assay volume is 30 μM) in assay buffer and the resulting mixture was incubated for a reaction time of 30 min at 22° C. The concentration of CSNK1D was adjusted depending of the activity of the enzyme lot and was chosen appropriate to have the assay in the linear range, a typical concentration is about 0.5 ng/μL. The reaction was stopped by the addition of 2.5 μL of “ADP-Glo-reagent” (1:1.5 fold diluted with water) and the resulting mixture was incubated at 22° C. for 1 h to convert the ATP not consumed in the kinase reaction completely […]. Subsequently 2.5 μL of the “kinase detection reagent” (1.2 fold more concentrated than recommended by the producer) were added, the resulting mixture was incubated at 22° C. for 1 h and then the luminescence measured with a suitable measurement instrument (e.g. Viewlux™ from Perkin-Elmer). The amount of emitted light was taken as a measure for the amount of ADP generated and thereby for the activity of the CSNK1D.
(§2) The data were normalised (enzyme reaction without inhibitor=0% inhibition, all other assay components but no enzyme=100% inhibition).

[2] = target: human CSNK1A1 (Homo sapiens (Human), UniProt P48729); test: CSNK1A1 Assay 2 (ADP-Glo, 1 μM ATP); format: biochemical; details: median, Table 2, read-out: CSNK1A1 Assay 2 IC50 [mol/l] (median)
Method: CSNK1A1-inhibitory activity of compounds of the present invention in presence of 1 μM adenosine-tri-phosphate (ATP) was quantified employing the CSNK1A1 assay as described in the following paragraphs. In essence, the enzyme activity is measured by quantification of the adenosine-di-phosphate (ADP), which is generated as a co-product of the enzyme reaction, via the “ADP-Glo™ Kinase Assay” kit from the company Promega. This detection system works as follows: In a first step the ATP not consumed in the kinase reaction is quantitatively converted to cAMP employing an adenylate cyclase (“ADP-Glo-reagent”), then the adenylate cyclase is stopped and the ADP generated in the kinase reaction converted to ATP which generates in a luciferase-based reaction a glow-luminescence signal (“Kinase Detection Reagent”).
as §1, with “CSNK1A1,” for “CSNK1D,”, “PV4174)” for “PV3665)”, “biotin-Ahx-KRRRAL-pS-VASLPGL” for “Btn-Ahx-SGSEGDSESGEEEG”
For the assay 50 nl of a 100 fold concentrated solution of the test compound in DMSO was pipetted into a white 1536-well microtiter plate (Greiner Bio-One, Frickenhausen, Germany), 2 μL of a solution of CSNK1A1 in aqueous assay buffer [50 mM HEPES pH 7.5, 10% (v/v) glycerol, 10 mM MgCl2, 50 mM NaCl, 1 mM dithiothreitol, 0.01% (w/v) bovine serum albumin, 0.01% (v/v) Triton X-100] were added and the mixture was incubated for 15 min at 22° C. to allow pre-binding of the test compounds to the enzyme before the start of the kinase reaction. Then the kinase reaction was started by the addition of 3 μL of a solution of ATP (1.67 μM=>final conc. in the 5 μL assay volume is 1 μM) and peptide substrate (50 μM=>final conc. in the 5 μL assay volume is 30 μM) in assay buffer and the resulting mixture was incubated for a reaction time of 30 min at 22° C. The concentration of CSNK1A1 was adjusted depending of the activity of the enzyme lot and was chosen appropriate to have the assay in the linear range, a typical concentrations are about 0.0375 ng/μL. The reaction was stopped by the addition of 2.5 μL of “ADP-Glo-reagent” (1:1.5 fold diluted with water) and the resulting mixture was incubated at 22° C. for 1 h to convert the ATP not consumed in the kinase reaction completely […]. Subsequently 2.5 μL of the “kinase detection reagent” (1.2 fold more concentrated than recommended by the producer) were added, the resulting mixture was incubated at 22° C. for 1 h and then the luminescence measured with a suitable measurement instrument (e.g. Viewlux™ from Perkin-Elmer). The amount of emitted light was taken as a measure for the amount of ADP generated and thereby for the activity of the CSNK1A1.
as §2

human CSNK1D, sequence (P48730 whole entry): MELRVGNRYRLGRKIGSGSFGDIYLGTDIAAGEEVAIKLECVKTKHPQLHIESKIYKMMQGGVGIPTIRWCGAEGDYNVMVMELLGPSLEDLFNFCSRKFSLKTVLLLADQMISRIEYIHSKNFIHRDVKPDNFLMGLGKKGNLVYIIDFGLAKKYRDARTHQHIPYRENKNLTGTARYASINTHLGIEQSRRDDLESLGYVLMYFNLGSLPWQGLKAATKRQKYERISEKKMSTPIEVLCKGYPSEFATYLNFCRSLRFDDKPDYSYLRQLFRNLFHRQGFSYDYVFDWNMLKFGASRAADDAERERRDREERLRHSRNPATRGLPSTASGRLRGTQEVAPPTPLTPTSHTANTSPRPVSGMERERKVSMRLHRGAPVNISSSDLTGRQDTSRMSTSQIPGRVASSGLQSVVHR
human CSNK1A1, sequence (P48729 whole entry): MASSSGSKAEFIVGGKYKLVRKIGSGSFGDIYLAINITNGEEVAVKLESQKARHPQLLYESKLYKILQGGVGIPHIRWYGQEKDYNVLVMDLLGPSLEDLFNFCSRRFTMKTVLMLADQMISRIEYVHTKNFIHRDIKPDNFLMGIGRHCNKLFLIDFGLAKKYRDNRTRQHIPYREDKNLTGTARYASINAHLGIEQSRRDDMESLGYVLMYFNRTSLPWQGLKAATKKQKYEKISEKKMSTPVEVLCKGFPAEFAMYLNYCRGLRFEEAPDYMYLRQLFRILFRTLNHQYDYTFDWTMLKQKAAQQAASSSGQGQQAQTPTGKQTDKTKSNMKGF

Compound: Cn1cc(CC(F)(F)F)c2[nH]c(-c3ccnc(NC(=O)C(CC(F)F)c4ccc(F)cc4)c3)c(Nc3ccccc3)c2c1=O (racemic) [Example 35, N-{4-[3-anilino-5-methyl-4-oxo-7-(2,2,2-trifluoroethyl)-4,5-dihydro-1H-pyrrolo[3,2-c]pyridin-2-yl]pyridin-2-yl}-4,4-difluoro-2-(4-fluorophenyl)butanamide]
- pIC50 [1]: 8.23
- pIC50 [2]: 8.10
